Experimental data from US20160214958A1, “COMPOUNDS AND USE FOR TREATING CANCER” (GLIONOVA AB, priority 2013, published 2016).

Columns and labels:
[1] = test system: U3013MG GSCs injected into brain ventricle; assay: Zebrafish xenograft in vivo efficacy assay
Protocol: (§1) A xenotransplantation model for GBM in zebrafish was developed to test the capacity of the 17 hits to prevent tumor formation in vivo. Three thousand U3013MG GSCs labeled with cell tracker red were injected intracranially into the ventricle of 48-52 hpf larvae. Each of the 17 hits were administered to the egg water at the lowest effective in vitro cytotoxic concentration identified and tumor development assessed 10 days later. This assay allowed rapid evaluation of the compounds in an in vivo setup, features such as the acute/chronic toxicity effect of the compounds on zebrafish and the transplanted cells, transplanted cell proliferation and migration of cells into brain parenchyma, compounds penetrance into the zebrafish tissue were all parallely evaluated. […] Cardiovascular toxicity was assessed using a recently established model based on frequency spectral analysis of heart beating in ex-vivo adult zebrafish hearts (Kitambi et al., (2012) BMC Physiol. 12, 3).
The zebrafish xenografts glioblastoma model was developed for quantitative analyses on the efficacy of S10 to inhibit tumor development and for quantification of infiltration of cells in the host brain. […] The size of the tumor was determined by quantification of the area, fluorescence level and infiltration by measuring the average distance of infiltrating cells from the original tumor mass. […]

zebrafish embryos = details: in vivo
Protocol: To assess the selectivity of compounds on mixed cultures consisting of GSC with other cell types, a hanging drop-based mixed culture procedure was developed. U3013MG GSCs were labeled with a cell tracker red and fibroblasts with a cell tracker green fluorescent dye for co-cultures to assess selective effects on glioma cells (glioblastoma) in a mixed culture setting. Cells organized in layers in the absence of compounds.
A zebrafish model was used to assess the developmental and cardiac toxicity of advanced hits from the screen. For the developmental toxicity experiment, zebrafish embryos at one-cell stage were distributed into a 96 well plate (3 embryos per well in 200 μl of egg water) and exposed to DMSO as a control or various concentration of compounds. The egg water (with or without compound) was replaced every 6 hrs and the embryos were allowed to grow for three days. The embryos were monitored every day and allowed to grow for 5 days before the phenotype was recorded. For the cardiotoxicity assay, an ex vivo culture of adult hearts was performed according to our previously published procedure (Kitambi et al., (2012) BMC Physiol. 12, 3). Adult hearts from male zebrafish were exposed to compounds and the effect on the heart beat was recorded and analysed using developed methods (Kitambi et al., (2012) BMC Physiol. 12, 3).

[2] = test system: ex-vivo adult zebrafish hearts; assay: Cardiotoxicity, ex vivo adult zebrafish hearts; details: frequency spectral analysis of heart beating
Protocol: as §1
A zebrafish model was used to assess the developmental and cardiac toxicity of advanced hits from the screen. […] The embryos were monitored every day and allowed to grow for 5 days before the phenotype was recorded. […] Adult hearts from male zebrafish were exposed to compounds and the effect on the heart beat was recorded and analysed using developed methods (Kitambi et al., (2012) BMC Physiol. 12, 3).

[3] = Tolerance of oral dosing of S10; type: in vivo; details: 20 mg/kg/day oral gavage for one week, weight loss and signs of distress
phospho-MKK4 = assay: Western blot of GSC for phospho-MKK4; type: cell-based, human; details: GSCs; remained at similar levels for at least 26 hrs
Excerpt: A genome wide screen with shRNA libraries was used to identify pathways for S10 induced macropinocytosis. The approach was based on the idea that depleting a key factor in the pathway should render GSCs refractive to S10 induced death. Three different DECIPHER pooled lentiviral shRNA libraries consisting of 82500 shRNA covering 15377 genes grouped into Human Module 1 (genes associated with various signaling pathways), Human Module 2 (disease-associated genes) and Human Module 3 (genes associated with cell surface, extracellular and DNA binding), were used to transduce U3013MG GSCs. Four days later, 14 μM S10 was added for one day after which cells were cultured in standard medium for five month. Surviving cells were thereafter dissociated and further expanded. […] Phospho-MKK4 increased within 5 min of S10 exposure and remained at similar levels for at least 26 hrs of stimulation. […]
(§2) Whole-cell extracts were prepared in SDS-buffer (25 mM Tris-HCl, pH 7.5, 1 mM EDTA, protease inhibitor cocktail (Roche), and phosphatase inhibitors [2 mM sodium orthovanadate, 20 mM beta-glycerolphosphate], and 1% SDS). The samples were analysed by western blot as described previously (Aranda et al. (2008) Mol Cell Biol, 28, 5899-5911) with the following antibodies: anti-Histone H3 (Abcam), antitrimethyl(Lys27)-Histone H3 (Millipore) and anti-phospho(S257/Thr261)-SEK1/MKK4 (R&D Systems).

[4] = test system: histone H3 trimethylation at lysine 27 (H3K27me3); assay: Western blot of GSC for H3K27me3; type: cell-based, human; details: GSC treated for 5 min to 26 hours
Protocol: Cell extracts were immunoblotted for phosphor-MKK4 (P-MKK4) and histone H3 trimethylation at lysine 27 (H3K27me3).
as §2

[5] = test system: glioma stem cell line U3013; assay: In vitro cancer cell and CSC viability assay (ATP quantification, CellTiterGlo); type: cell-based; details: Homo sapiens; 3000 cells/cm2, after 24 hours; read-out: EC50, viability of GSCs

With `OC(c1cc(-c2ccc(Cl)cc2)nc2ccccc12)C1CCCCN1` (racemic) [Compound S10, (2-(4-chlorophenyl)quinolin-4-yl)(piperidin-2-yl)methanol] the tumor growth ([1]; 15 μM applied to the aquarium water for 10 days) was “marked attenuation of tumor growth”, the tumor size ([1]; lowest effective in vitro cytotoxic concentration in egg water, assessed 10 days later) was “markedly reduced tumor size” and the “effect on zebrafish development” value (zebrafish embryos) was “did not exert any effect of zebrafish development”. The “cardiac toxicity, heart beating” value [2] was “small or no effects”, the “tolerance of oral dosing” value [3] was “well tolerated” and the “time to increase of Phospho-MKK4 after exposure” value (phospho-MKK4) was ≤ 5 min. For the same molecule, the “effect on H3K27me3” value [4] was “lack of inhibition effects” and the EC50 [5] was 2360 nM.
